In paper PMC11272598, “RG7774 (Vicasinabin), an orally bioavailable cannabinoid receptor 2 (CB2R) agonist, decreases retinal vascular permeability, leukocyte adhesion, and ocular inflammation in animal models” (Frontiers in Pharmacology, 2024):

Experiments:
[1] = tested on: Human EMT; experiment: Human EMT activity (HaCaT cells); format: cell-based; settings: RG7774 10 µM
Method: HaCaT cells were seeded (350,000–400,000 cell/well) in triplicate in 12-well plates and incubated for 15 min in PBS at 37°C with [^3H]-N-arachidonoylethanolamine ([^3H]-AEA) (400 nM) (ARC, MO, USA), as previously reported. Experiments were repeated at 4°C in order to subtract passive diffusion from EMT-mediated uptake. RG7774 (10 µM) was preincubated with labeled HaCaT cells for 15 min before adding directly to the incubation medium (PBS). The selective EMT inhibitor, OMDM-1 (40 µM), was used as positive control.

[2] = pKa; format: physicochemical; settings: basic
Excerpt: TABLE 2 Physicochemical and ADMET profile for RG7774.

[3] = Plasma PK profile in rats; format: in vivo, Wistar rats; settings: mean (% CV)
Method: The plasma PK profile of RG7774 was assessed in adult male C57BL/6J mice and female Wistar rats (Charles River, Cologne, Germany) housed in a controlled environment (temperature, humidity, and 12 h light/dark cycle) with unrestricted access to food and water. The ocular PK profile of RG7774 was assessed in adult female […] rats (Charles River, Mattawan, MI, United States) housed in a controlled environment (21°C–22°C temperature, 40%–60%, humidity, and 12 h light/dark cycle) with unrestricted access to food and water and conducted according to local regulations by EyeCRO (Ann Arbor, MI, United States).
In the first study (animal permission #1857), mice received RG7774 as an intravenous (IV) bolus at 1 mg/kg (n = 6) or as an oral (PO) dose at 3 mg/kg (n = 5). In the second study (animal permission #2373), rats received RG7774 as an IV bolus at 10 mg/kg (n = 4) or via gavage at 30 mg/kg (n = 3). Blood samples were collected 0.1, 1, 3, 10, and 24 h post-dose under deep anesthesia with 3%–5% isoflurane in 100% O2. Samples were collected sublingually from mice, from the tail vein in rats or via heart puncture (terminal) into anticoagulant-coated polypropylene tubes and placed on ice. Plasma was prepared within 30 min of collection by centrifugation at 3,000 g for 5 min at 4°C and was immediately frozen. RG7774 concentrations in plasma were determined using LC-MS/MS. PK parameters were estimated by non-compartmental analysis of plasma data using Phoenix WinNonlin software (Certara, Princeton, NJ, United States).

[4] = Brain:plasma ratio after oral administration (GLP toxicology studies, data on file); format: in vivo; settings: rat, rats, read-out: Mean brain:plasma ratios
[5] = tested on: laser-induced CNV; experiment: Laser-induced CNV in rats, fluorescein angiography lesion area; format: in vivo, Brown Norway rats; settings: CNV rat model, ED50 0.037 mg/kg
Method: Male Brown Norway rats (Charles River, Sulzfeld, Germany) aged 9 weeks and weighing 200 g on arrival ([…] after 1 week) were housed in individually ventilated GR1800 cages (Tecniplast, Pontremoli, Italy) with a maximum density of n = 5 rats per cage with the same litter and sex. The room was kept at 20°C–24°C with 50%–60% humidity and a 12/12 h light-dark cycle with ad libitum access to standard diet and water.
RG7774 was formulated (w/w) in 0.1% hydroxyethyl cellulose, 1% polysorbate 80, 0.18% methylparaben, 0.02% propylparaben, and 0.21% citric acid monohydrate, adjusted to pH 6 using NaOH. Three studies with 20 rats each were performed. […] The wellbeing of the animals was monitored daily, and free access was granted to food and water. […] Body weight was continuously monitored, and oral doses of RG7774 were adjusted accordingly. […]
Rats were anesthetized 1 week after laser injury using fentanyl 0.005 mg/kg, medetomidine 0.15 mg/kg, and midazolam 2 mg/kg. […] Retinal vessels and neovascularization were visualized by switching to fluorescence mode.
Images taken by the Heidelberg Spectralis HRA system were manually analyzed for the degree of CNV within the lesion (fluorescent) area and the affected area (in mm^2) was calculated using the Heidelberg Eye Explorer imaging program (Heidelberg Spectralis HRA, Heidelberg Engineering, Heidelberg, Germany). […]

[6] = target: Mouse CB1R (Mus musculus, UniProt P47746); experiment: Competitive binding assay in mouse brain membranes, [^3H]-CP55940; design: mouse brain membranes expressing endogenous CB1R; from tissue; host or cells: mouse brain membranes; settings: RG7774 10 µM; read-out: Mean ± SEM % inhibition of control, Mouse CB1R (competitive binding assay)
Mouse CB1R, sequence (P47746 whole entry): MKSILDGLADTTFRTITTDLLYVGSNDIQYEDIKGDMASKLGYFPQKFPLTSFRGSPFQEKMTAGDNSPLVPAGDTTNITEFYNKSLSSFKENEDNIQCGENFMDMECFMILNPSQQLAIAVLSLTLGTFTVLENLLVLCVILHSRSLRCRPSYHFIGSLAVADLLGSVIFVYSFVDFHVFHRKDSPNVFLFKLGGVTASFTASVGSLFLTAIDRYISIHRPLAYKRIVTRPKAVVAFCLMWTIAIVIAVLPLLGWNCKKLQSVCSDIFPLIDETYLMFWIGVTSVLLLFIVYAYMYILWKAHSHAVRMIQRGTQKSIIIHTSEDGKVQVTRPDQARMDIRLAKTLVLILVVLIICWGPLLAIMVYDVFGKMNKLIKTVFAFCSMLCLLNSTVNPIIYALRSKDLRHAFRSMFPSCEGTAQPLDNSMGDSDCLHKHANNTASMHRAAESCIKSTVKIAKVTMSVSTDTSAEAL
Method: Mouse brain was resuspended in 2 mM Tris–EDTA, 320 mM sucrose, 5 mM MgCl2 (pH 7.4), homogenized using a glass potter, and centrifuged 3 times, each at 1000 g for 10 min.

[7] = female, Wistar, rat, plasma, IV 10 mg/kg
[8] = female, Wistar, rat, plasma, PO 30 mg/kg

For Cn1nnnc1Cn1nnc2c(N3CC[C@H](O)C3)nc(C(C)(C)C)nc21 [RG7774, (S)-1-(5-tert-butyl-3-[(1-methyl-1H-tetrazol-5-yl)methyl]-3H-[1,2,3]triazolo[4,5-d]pyrimidin-7-yl)pyrrolidin-3-ol], the “Mean ± SEM % inhibition of control, Human EMT” value [1] was 4.5 ± 25.5%, the pKa [2] was 2.63 and the AUCinf/dose ([3]; IV 10 mg/kg) was 6,000 (16) ng h^–1 ml^–1 (mg kg^−1) ^−1. The AUCinf/dose ([3]; PO 30 mg/kg) was 4,670 (9.4) ng h^–1 ml^–1 (mg kg^−1) ^−1, the Cmax/dose ([3]; PO 30 mg/kg) was 466 (13) ng ml^–1 (mg kg^–1) ^−1 and the clearance [3, 7] was 2.84 mL/min/kg. It also gave a half-life [3, 7] of 2.54 h, a Vd ([3]; female, Wistar, rat, plasma, IV 10 mg/kg, read-out: Vss) of 0.442 L/kg and a Tmax [3, 8] of 1.25 h. It also gave a bioavailability [3, 8] of 81.4%, a half-life [3, 8] of 3.18 h and a Kp [4] of 0.0955 to 0.213. The “maximum concentration of the free active epimer in plasma associated with the ED50” value [5] was 12.5 nM, the “average concentration of the free active epimer in plasma associated with the ED50” value ([5]; S/R-enantiomer ratio of 2 assumed) was 1.05 nM and the inhibition at 10 µM [6] was 3.8%.
